Data set [1] is described as follows: Assessment of In Vitro Metabolic Stability in dog liver microsomes. Format: in vitro ADME. The conditions noted are these: for t1/2 in dog LM compared with the compound of example 1: comparison in words; for half-life at 1 μM: dog liver microsomes 0.5 mg/mL, 1 μM compound, NADPH, 37° C., read-out: Dog LM t1/2. On the procedure: Assessment of In Vitro Metabolic Stability
Dog liver microsomes (0.5 mg/mL) were purchased from Corning. Stock solutions were prepared at 10 mM in DMSO for the test compound. Aliquots of the stock solutions were diluted to 0.5 mM with acetonitrile, and then further diluted upon the addition of liver microsomes/buffer to 1.5 μM. An aliquot of 30 μL of 1.5 μM solutions was mixed with 15 μL of 6 mM NADPH and the final concentration of NADPH was 2 mM, which had been pre-warmed to 37° C. Test compound and Ketanserin final concentrations were 1 μM. The plates were kept in a 37° C. water bath for the duration of the experiment. At each time point (0, 5, 15, 30, 45 minutes), 135 μL of acetonitrile was added into corresponding wells. After the final time point was quenched by acetonitrile, the assay plates were shaken (IKA, MTS 2/4) for 10 min (600 rpm/min) and then centrifuged at 5,594 g for 15 min (Thermo Multifuge×3R). Aliquots of the supernatant were taken, diluted 1:1 into distilled water, and analyzed by LC-MS/MS. The peak area response ratio to internal standard (PARR) of the compounds at 5, 15, 30, 45 minutes was compared to the PARR at time 0 to determine the percent of test compound remaining at each time point. Half-lives were calculated using Excel software, fitting to a single-phase exponential decay equation.
(Microsomes from liver hold many membrane-bound enzymes, among them those of drug oxidation.)

For data set [2], the target named is N-terminally GST-tagged HCK (75-526) (Homo sapiens (Human), UniProt P08631). The data set can be described thus: HCK Kinase Assay (ProFluor Src-Family Kinase Assay). It counts as biochemical. The conditions noted are these: for pIC50: 50 μM ATP. In short, it runs like this:
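ProFluor Src-family format: after the kinase reaction, protease solution was added for 60 min at room temperature (22-25° C), then stabilizer.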

Data set [3] is described as follows: Assessment of In Vivo Pharmacokinetics in Beagle dog. The conditions noted are these: for bioavailability in vivo / plasma clearance in vivo: dog, comparison in words; for Dog BAV: male Beagle dog, iv or po at 1 mg/kg or 3 mg/kg. On the procedure:
Assessment of In Vivo Pharmacokinetics
A total of 6 Male Non-naïve Beagle dog, weighing approximately 8.00-10.00 kg (Beijing Marshall Biotechnology Co. LTD), were dosed by intravenous injection (iv) or oral gavage (po) at 1 mg/kg or 3 mg/kg. The vehicles of IV and PO are 100% saline and 100% (0.5% MC in water), respectively. The IV dose was conducted via cephalic vein injection, PO via gavage administration. The animals were restrained manually, and approximately 0.5 mL blood/time point was collected from cephalic vein into pre-cooled K2EDTA tubes. Blood sample was put on wet ice and centrifuged at 4° C. (2000 g, 5 min) to obtain plasma within 15 minutes of sample collection. Plasma samples were analyzed by UPLC/MS-MS. PK parameters were estimated by non-compartmental model using WinNonlin6.4.

[4] abbreviates: HCK inhibitory activity, read-out: HCK Activity.

The values that follow come from patent US11963960B2 (Flash Therapeutics, LLC, priority 2020, dated 2024).

Structures are written as SMILES. pIC50: −log10 of the molar value. Entries after “also recorded” stand apart in the source; their conditions may differ. Like-named read-outs stand apart in the source and are kept apart here.

Sequence of N-terminally GST-tagged HCK (75-526) (P08631 75-526): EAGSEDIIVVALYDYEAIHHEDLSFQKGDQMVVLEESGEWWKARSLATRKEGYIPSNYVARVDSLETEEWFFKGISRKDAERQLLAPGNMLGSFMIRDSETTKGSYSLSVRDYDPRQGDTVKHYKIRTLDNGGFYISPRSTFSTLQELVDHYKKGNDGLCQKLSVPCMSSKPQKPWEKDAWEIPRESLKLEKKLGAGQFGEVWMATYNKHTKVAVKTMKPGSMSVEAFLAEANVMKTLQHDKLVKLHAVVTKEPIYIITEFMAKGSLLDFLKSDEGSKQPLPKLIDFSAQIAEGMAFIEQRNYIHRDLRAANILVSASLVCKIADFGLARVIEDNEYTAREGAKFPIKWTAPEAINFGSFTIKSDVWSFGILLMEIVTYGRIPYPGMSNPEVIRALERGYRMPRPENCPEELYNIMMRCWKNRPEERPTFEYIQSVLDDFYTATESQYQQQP

On to `C[C@H]1CN([C@H]2CC[C@H](n3nc(-c4ccc(Oc5ccccc5)cc4F)c4c(N)ncnc43)CC2)CCN1` [Example 127, 3-(2-fluoro-4-phenoxyphenyl)-1-((trans)-4-((S)-3-methylpiperazin-1-yl)cyclohexyl)-1H-pyrazolo[3,4-d]pyrimidin-4-amine], for which, in data set [1], the “t1/2 in dog LM compared with the compound of example 1” value was “higher t1/2” and the half-life at 1 μM turned out to be 1.97 h. Moreover, the pIC50 in data set [2] (read-out: HCK IC50) is 8.29. The pIC50 in data set [2] (setting [4]) is more than 7.30. The “HCK potency relative to a comparator compound” value in data set [2] (example 127 versus example 21 and versus example 17) is recorded as “nearly an order of magnitude higher potency; also recorded: nearly three times greater potency”. In addition, in data set [3], the bioavailability in vivo result is on record as “higher bioavailability”, the “plasma clearance in vivo” value is reported as “lower plasma clearance” and the “Dog BAV” value amounted to 57 % F.
Turning to `CN1CCN([C@H]2CC[C@H](c3nc(-c4ccc(Oc5ccccc5)cc4F)c4c(N)ncnn43)CC2)CC1` [Example 163, 5-(2-fluoro-4-phenoxyphenyl)-7-((trans)-4-(4-methylpiperazin-1-yl)cyclohexyl)imidazo[5,1-f][1,2,4]triazin-4-amine], in data set [1], the “t1/2 in dog LM compared with the compound of example 1” value is “higher t1/2” and the half-life at 1 μM came out at 1.8 h. Also, the pIC50 in data set [2] (read-out: HCK IC50) was 8.96. In addition, in data set [2] (setting [4]), the pIC50 is more than 7.30. Moreover, in data set [3], the bioavailability in vivo entry is given as “higher bioavailability”, the “plasma clearance in vivo” value is given as “lower plasma clearance” and the “Dog BAV” value came to 51 % F.
